Data taken from article PMC10254852, “Design, Synthesis and Anticancer Evaluation of Nitroimidazole Radiosensitisers” (Molecules, 2023).

Key:
HCT116/54C cells = assay: In vitro radiosensitisation under anoxia, clonogenic survival; format: cell-based, human; details: compound 1 mM, radiation dose for 1% survival/radiation dose for 1% survival with compound, mean ± SEM
[1] = Tolerability at maximum achievable dose, i.v.; format: in vivo; details: i.v. injection, NIH-III mice
Text: The most promising 2-nitroimidazole 34 and 5-nitroimidazole 38 compounds were selected for in vivo evaluation on the basis of solubility, in vitro cytotoxicity and radiosensitisation data. These compounds were both well tolerated by i.v. injection in NIH-III mice at their maximum achievable dose (MAD) of 2.2 mmol/kg. This MAD was also achieved for some of our earlier compounds, but only when we employed a phosphate prodrug strategy owing to their poor solubility. […] The Cmax and AUC exceeded that achieved for earlier phosphate prodrugs 9–12, but was less than 2. On this basis we advanced both morpholine analogues into in vivo radiosensitisation studies.
Specific pathogen-free six- to eight-week-old female NIH-III mice, bred in the Vernon Jansen Unit, University of Auckland, were used for animal experiments. Animals had ad libitum access to food and water and were maintained in microisolator cages on a 12 h light/dark cycle. All treatments were administered by i.v. injection at a dose of 2.2 mmol/kg and injection volume of 10 mL/kg. Compounds 2, 34 and 38 were administered as solutions in saline containing 1% DMSO or for 9–12 as solutions in saline containing 2 molar equivalents of NaHCO3. Control animals received an i.v. injection of saline at 10 mL/kg. All animal experiments were conducted under the auspices of the University of Auckland Animal Ethics Committee (approval 1781).

**Q.** With `O=[N+]([O-])c1nccn1CS(=O)(=O)NCCN1CCOCC1` [Compound 34] as the molecule, how does the “SER at 1 mM” value (HCT116/54C cells) read?
**A.** 1.92 ± 0.01

**Q.** What about the “maximum achievable dose (MAD), well tolerated” value [1] of the same molecule?
**A.** 2.2 mmol/kg
